# Measured values published in article PMC10799935, “Discovery of a peripheral 5HT2A antagonist as a clinical candidate for metabolic dysfunction-associated steatohepatitis” (Nature Communications, 2024).
# pIC50: −log10 of the molar value. Several values for one entry are separate records, joined by “and”; a condition that tells them apart may be missing. Equal entries are not always repeated.
# Key:
# 5HT1A (h) = molecular target: T1, 5HT1A (h) (Homo sapiens, UniProt P08908); assay: 5HT subtype antagonism assay (Eurofins Cerep): 5HT1A; assay type: cell-based; settings: concentration not given
# T1 construct: host or cells: BA/F3 cells
# T1 sequence (P08908 whole entry): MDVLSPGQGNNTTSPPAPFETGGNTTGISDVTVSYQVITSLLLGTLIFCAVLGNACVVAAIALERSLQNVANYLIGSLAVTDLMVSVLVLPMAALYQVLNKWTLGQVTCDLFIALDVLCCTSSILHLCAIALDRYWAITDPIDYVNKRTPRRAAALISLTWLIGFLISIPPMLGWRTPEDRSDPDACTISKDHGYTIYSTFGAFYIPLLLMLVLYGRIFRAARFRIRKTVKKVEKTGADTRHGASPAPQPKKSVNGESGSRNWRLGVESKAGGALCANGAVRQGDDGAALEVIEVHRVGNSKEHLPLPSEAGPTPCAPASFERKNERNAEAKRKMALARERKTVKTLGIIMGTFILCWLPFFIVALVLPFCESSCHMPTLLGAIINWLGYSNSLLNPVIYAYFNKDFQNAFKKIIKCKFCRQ
# α-SMA = assay: CDAHFD mice: α-SMA immunohistochemical staining; assay type: in vivo, mouse; design: α-SMA immunohistochemical staining (a-SMA area), individual mouse / α-SMA immunohistochemical staining (a-SMA area), Average: unit not given here; settings: for α-SMA immunohistochemical staining (a-SMA area), Average / α-SMA immunohistochemical staining (a-SMA area), individual mouse: CDAHFD mice; for α-SMA immunohistochemical staining (a-SMA area), Average: group average n=5, CDAHFD+Vehicle 6.348, Vehicle 0.808; for α-SMA immunohistochemical staining (a-SMA area), individual mouse: individual animals No. 1-5 (Fig.4f)
# From the text: C57BL/6 J male mice were purchased from the Japan SLC. Inc (Hamamatsu, Japan). Mice (5 weeks old) were fed Teklad Certitied Irradiated Global 18% protein rodent diet purchased from Dooyeol Biotech Co. Ltd (Seoul, South Korea) during the acclimation period. The liver fibrosis/inflammation-induced groups were CDAHFD-fed (A06071302, Research diet). […] All animal experiments complied with the relevant ethical regulations.
# Mouse liver tissues were fixed in 4% formalin solution (Sigma–Aldrich, St. Louis, MO, USA) and embedded in paraffin. 4-μm-thick liver sections were deparaffinized in xylene, and rehydrated through descending grades of ethanol. To evaluate liver fibrosis, sections were stained with Sirius red solution and subjected to immunohistochemical staining. Tissue sections, after deparaffinization, underwent a 16-hour incubation in a solution containing 0.1% Direct Red 80 (365548, Sigma-Aldrich) dissolved in Picric acid (P-201, Spectrum Chemical, CA, USA) for Sirius red staining. The sections were briefly immersed in a 0.01 N HCl solution (1129, Ducksan, Republic of Korea) for 2 min. and then rinsed with distilled water for destaining. Subsequently, the sections underwent dehydration through […] grades of ethanol. Immunohistochemical staining was performed using the Polyview Plus HRP-DAB (anti-Rabbit) Kit (ENZ-KIT159-0150, ENZO Life Science, NY, USA) following the manufacturers’ instructions. Deparaffinized sections were boiled in IHC-TekTM Epitope Retrieval solution (IW-1100, IHCWORLD, MD, USA) for 45 min., cooled for 1 h, incubated in a 3% H2O2 solution (69355-0350, JUNSEI, Japan) for 15 min., washed, and then incubated overnight with primary antibodies (α-SMA, ab5694, Abcam, 1:500 dilution; TNF-α, ab6671, Abcam, 1:100 dilution and IL-1β, ab9722, Abcam, 1:100 dilution). Subsequently, the sections were treated with Polyview Plus HRP for 2 h and developed with DAB chromogen/substrate. Stained […] sections were confirmed by light microscopy (Olympus BX53 upright microscope, Tokyo, Japan). The degree of hepatic fibrosis and immunohistochemical staining was quantified by morphometric analysis of stained liver sections using NIH ImageJ software.
# in vitro [1] = settings: mouse, plasma
# in vitro [2] = settings: mouse
smiles,measurement,setting,value
Cc1nc2n(c(=O)c1CCN1CCC(=C3c4ccc(Cl)cc4CCc4cccnc43)CC1)CCCC2O (centres unmarked) [Compound 11c],Selectivity 1 A: % inhibition,5HT1A (h),9%
same,"α-SMA immunohistochemical staining (a-SMA area), Average",α-SMA; 11c 5 mpk,2.563
same,"α-SMA immunohistochemical staining (a-SMA area), individual mouse",α-SMA; 11c 5 mpk,2.929 and 2.447 and 3.505 and 2.773 and 1.159
same,"α-SMA immunohistochemical staining (a-SMA area), Average",α-SMA; 11c 10mpk,3.310
same,"α-SMA immunohistochemical staining (a-SMA area), individual mouse",α-SMA; 11c 10mpk,3.665 and 3.079 and 3.824 and 3.446 and 2.538
same,α-SMA expression (immunohistochemical staining),α-SMA; CDAHFD-fed 11c vs CDAHFD-fed vehicle group,significant decrease
same,remaining at 4 h,in vitro [1],> 99.9%
same,pIC50,in vitro [2],< 4.00
